Laboratory results as given in patent publication US11649255B2, “Indazoles as hematopoietic progenitor kinase 1 (HPK1) inhibitors and methods using same” (1st Biotherapeutics, Inc., priority 2020, dated 2023).

Target: recombinant human HPK1 (Homo sapiens (Human), UniProt Q92918)
Assay: HPK1 kinase assay (ADP-Glo)
Type: biochemical
Settings: 25 μM ATP, MBP substrate
Method: HPK1 kinase activity was measured by Promega's ADP-Glo™ kinase assay. In this assay, 5 ng of recombinant human HPK1 (signalchem) is incubated with 5 μL of compounds (0.5% DMSO), 5 μL of MBP (0.5 μg/μl) and 5 μL of ATP (25 μM) in buffer (40 mM Tris, 7.5; 20 mM MgCl2; 0.1 mg/ml BSA; 5 μM DTT). The assay was started by incubating the reaction mixture in a 96-well plate at 30′ C for 40 minutes. After the incubation, 25 uL ADP-Glo reagent was added and the reaction was incubated at room temperature for 40-min to stop the reaction and degrade residual ATP. The ADP product was then converted to ATP by adding 50 uL per well of detection reagent. Luminescence was detected after 30-min room temperature incubation with the Molecular device I3X plate reader. The IC50 values were calculated from a series of percent inhibition values determined at a range of inhibitor concentration using software routines as implemented in the GraphPad Prism 7 software and SigmaPlot13.0.

recombinant human HPK1, sequence (Q92918 whole entry): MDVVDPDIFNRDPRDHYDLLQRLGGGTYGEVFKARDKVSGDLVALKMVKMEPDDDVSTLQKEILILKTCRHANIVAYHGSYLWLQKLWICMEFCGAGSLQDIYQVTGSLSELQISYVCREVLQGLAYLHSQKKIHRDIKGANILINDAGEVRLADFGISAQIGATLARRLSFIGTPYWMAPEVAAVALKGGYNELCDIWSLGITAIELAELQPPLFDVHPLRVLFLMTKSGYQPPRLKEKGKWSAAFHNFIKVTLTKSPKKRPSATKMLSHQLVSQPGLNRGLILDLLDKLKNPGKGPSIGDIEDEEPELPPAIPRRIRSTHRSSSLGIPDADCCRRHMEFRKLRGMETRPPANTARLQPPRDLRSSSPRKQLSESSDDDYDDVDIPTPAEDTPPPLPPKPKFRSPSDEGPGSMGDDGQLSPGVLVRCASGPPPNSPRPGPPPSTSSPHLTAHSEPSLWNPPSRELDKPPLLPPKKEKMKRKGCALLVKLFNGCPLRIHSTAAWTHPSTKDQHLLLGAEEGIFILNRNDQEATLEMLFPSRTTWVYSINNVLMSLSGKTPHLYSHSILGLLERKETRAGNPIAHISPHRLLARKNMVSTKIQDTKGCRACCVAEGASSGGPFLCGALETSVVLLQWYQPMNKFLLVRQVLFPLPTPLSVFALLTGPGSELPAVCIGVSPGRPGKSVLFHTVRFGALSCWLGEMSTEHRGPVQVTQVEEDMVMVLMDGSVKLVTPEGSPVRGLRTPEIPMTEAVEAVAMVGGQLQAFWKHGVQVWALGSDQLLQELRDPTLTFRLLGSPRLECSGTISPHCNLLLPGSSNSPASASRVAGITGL

SMILES | IC50
CSc1c(F)c(C)c(-c2ccc3nc(NC(=O)[C@@H]4C[C@@H]4F)sc3c2)c2cn[nH]c12 [Example 64, (1S,2S)-2-fluoro-N-(6-(6-fluoro-5-methyl-7-(methylthio)-1H-indazol-4-yl)benzo[d]thiazol-2-yl)cyclopropane-1-carboxamide] | < 100 nM
Cc1c(F)cc2[nH]ncc2c1-c1ccc2nc(NC(=O)[C@@H]3C[C@@H]3F)sc2c1CCc1ccncc1 [Example 65, (1S,2S)-2-fluoro-N-(6-(6-fluoro-5-methyl-1H-indazol-4-yl)-7-(2-(pyridin-4-yl)ethyl)benzo[d]thiazol-2-yl)cyclopropane-1-carboxamide] | < 100 nM
Cc1c(F)c([S+](C)[O-])c2[nH]ncc2c1-c1ccc2nc(NC(=O)[C@@H]3C[C@@H]3F)sc2c1 (stereo partly drawn) [Example 66, (1S,2S)-2-fluoro-N-(6-(6-fluoro-5-methyl-7-(methylsulfinyl)-1H-indazol-4-yl)benzo[d]thiazol-2-yl)cyclopropane-1-carboxamide] | < 100 nM
Cc1c(F)c(I)c2[nH]ncc2c1-c1ccc2nc(NC(=O)[C@@H]3C[C@@H]3F)sc2c1 [Example 67, (1S,2S)-2-fluoro-N-(6-(6-fluoro-7-iodo-5-methyl-1H-indazol-4-yl)benzo[d]thiazol-2-yl)cyclopropane-1-carboxamide] | < 100 nM
Nc1c(F)c(Cl)c(-c2ccc3nc(NC(=O)[C@@H]4C[C@@H]4F)sc3c2)c2cn[nH]c12 [Example 68, (1S,2S)-N-(6-(7-amino-5-chloro-6-fluoro-1H-indazol-4-yl)benzo[d]thiazol-2-yl)-2-fluorocyclopropane-1-carboxamide] | < 100 nM
CN(C)c1c(F)c(Cl)c(-c2ccc3nc(NC(=O)[C@@H]4C[C@@H]4F)sc3c2)c2cn[nH]c12 [Example 69, (1S,2S)-N-(6-(5-chloro-7-(dimethylamino)-6-fluoro-1H-indazol-4-yl)benzo[d]thiazol-2-yl)-2-fluorocyclopropane-1-carboxamide] | < 100 nM
NCCSc1c(F)c(Cl)c(-c2ccc3nc(NC(=O)[C@@H]4C[C@@H]4F)sc3c2)c2cn[nH]c12 [Example 70, (1S,2S)-N-(6-(7-((2-aminoethyl)thio)-5-chloro-6-fluoro-1H-indazol-4-yl)benzo[d]thiazol-2-yl)-2-fluorocyclopropane-1-carboxamide] | < 100 nM
COCCSc1c(F)c(Cl)c(-c2ccc3nc(NC(=O)[C@@H]4C[C@@H]4F)sc3c2)c2cn[nH]c12 [Example 71, (1S,2S)-N-(6-(5-chloro-6-fluoro-7-((2-methoxyethyl)thio)-1H-indazol-4-yl)benzo[d]thiazol-2-yl)-2-] | < 100 nM
C=CC(=O)Nc1c(F)c(Cl)c(-c2ccc3nc(NC(=O)[C@@H]4C[C@@H]4F)sc3c2)c2cn[nH]c12 [Example 72, (1S,2S)-N-(6-(7-acrylamido-5-chloro-6-fluoro-1H-indazol-4-yl)benzo[d]thiazol-2-yl)-2-fluorocyclopropane-1-carboxamide] | 101 to 500 nM
CC(=O)NCCSc1c(F)c(Cl)c(-c2ccc3nc(NC(=O)[C@@H]4C[C@@H]4F)sc3c2)c2cn[nH]c12 [Example 73, (1S,2S)-N-(6-(7-((2-acetamidoethyl)thio)-5-chloro-6-fluoro-1H-indazol-4-yl)benzo[d]thiazol-2-yl)-2-fluorocyclopropane-1-carboxamide] | < 100 nM
O=C(Nc1nc2ccc(-c3c(Cl)c(F)c(N4CCOCC4)c4[nH]ncc34)cc2s1)[C@@H]1C[C@@H]1F [Example 74, (1S,2S)-N-(6-(5-chloro-6-fluoro-7-morpholino-1H-indazol-4-yl)benzo[d]thiazol-2-yl)-2-fluorocyclopropane-1-carboxamide] | 101 to 500 nM
CN1CCN(c2c(F)c(Cl)c(-c3ccc4nc(NC(=O)[C@@H]5C[C@@H]5F)sc4c3)c3cn[nH]c23)CC1 [Example 75, (1S,2S)-N-(6-(5-chloro-6-fluoro-7-(4-methylpiperazin-1-yl)-1H-indazol-4-yl)benzo[d]thiazol-2-yl)-2-fluorocyclopropane-1-carboxamide] | 101 to 500 nM
O=C(Nc1nc2ccc(-c3c(Cl)c(F)c(N4CCNCC4)c4[nH]ncc34)cc2s1)[C@@H]1C[C@@H]1F [Example 76, (1S,2S)-N-(6-(5-chloro-6-fluoro-7-(piperazin-1-yl)-1H-indazol-4-yl)benzo[d]thiazol-2-yl)-2-fluorocyclopropane-1-carboxamide] | 101 to 500 nM
O=C(Nc1nc2ccc(-c3c(Cl)c(F)c(N4CCC(O)C4)c4[nH]ncc34)cc2s1)[C@@H]1C[C@@H]1F (stereo partly drawn) [Example 78, (1S,2S)-N-(6-(5-chloro-6-fluoro-7-(3-hydroxypyrrolidin-1-yl)-1H-indazol-4-yl)benzo[d]thiazol-2-yl)-2-fluorocyclopropane-1-carboxamide] | 101 to 500 nM
O=C(Nc1nc2ccc(-c3c(Cl)c(F)c(SCCO)c4[nH]ncc34)cc2s1)[C@@H]1C[C@@H]1F [Example 79, (1S,2S)-N-(6-(5-chloro-6-fluoro-7-((2-hydroxyethyl)thio)-1H-indazol-4-yl)benzo[d]thiazol-2-yl)-2-fluorocyclopropane-1-carboxamide] | < 100 nM
COc1c(F)c(Cl)c(-c2ccc3nc(NC(=O)[C@@H]4C[C@@H]4F)sc3c2)c2cn[nH]c12 [Example 80, (1S,2S)-N-(6-(5-chloro-6-fluoro-7-methoxy-1H-indazol-4-yl)benzo[d]thiazol-2-yl)-2-fluorocyclopropane-1-carboxamide] | < 100 nM
CCOc1c(F)c(Cl)c(-c2ccc3nc(NC(=O)[C@@H]4C[C@@H]4F)sc3c2)c2cn[nH]c12 [Example 81, (1S,2S)-N-(6-(5-chloro-7-ethoxy-6-fluoro-1H-indazol-4-yl)benzo[d]thiazol-2-yl)-2-fluorocyclopropane-1-carboxamide] | < 100 nM
CN(CCN)c1c(F)c(Cl)c(-c2ccc3nc(NC(=O)[C@@H]4C[C@@H]4F)sc3c2)c2cn[nH]c12 [Example 82, (1S,2S)-N-(6-(7-((2-aminoethyl)(methyl)amino)-5-chloro-6-fluoro-1H-indazol-4-yl)benzo[d]thiazol-2-yl)-2-fluorocyclopropane-1-carboxamide] | < 100 nM
NC1CCN(c2c(F)c(Cl)c(-c3ccc4nc(NC(=O)[C@@H]5C[C@@H]5F)sc4c3)c3cn[nH]c23)CC1 [Example 83, (1S,2S)-N-(6-(7-(4-aminopiperidin-1-yl)-5-chloro-6-fluoro-1H-indazol-4-yl)benzo[d]thiazol-2-yl)-2-fluorocyclopropane-1-carboxamide] | 101 to 500 nM
NC1CCCN(c2c(F)c(Cl)c(-c3ccc4nc(NC(=O)[C@@H]5C[C@@H]5F)sc4c3)c3cn[nH]c23)C1 (stereo partly drawn) [Example 84, (1S,2S)-N-(6-(7-(3-aminopiperidin-1-yl)-5-chloro-6-fluoro-1H-indazol-4-yl)benzo[d]thiazol-2-yl)-2-fluorocyclopropane-1-carboxamide] | < 100 nM
CN(C)CCN(C)c1c(F)c(Cl)c(-c2ccc3nc(NC(=O)[C@@H]4C[C@@H]4F)sc3c2)c2cn[nH]c12 [Example 85, (1S,2S)-N-(6-(5-chloro-7-((2-(dimethylamino)ethyl)(methyl)amino)-6-fluoro-1H-indazol-4-yl)benzo[d]thiazol-2-yl)-2-fluorocyclopropane-1-carboxamide] | < 100 nM
O=C(Nc1nc2ccc(-c3c(Cl)c(F)c(SCCCO)c4[nH]ncc34)cc2s1)[C@@H]1C[C@@H]1F [Example 86, (1S,2S)-N-(6-(5-chloro-6-fluoro-7-((3-hydroxypropyl)thio)-1H-indazol-4-yl)benzo[d]thiazol-2-yl)-2-fluorocyclopropanecarboxamide] | < 100 nM
O=C(O)NC1CN(c2c(F)c(Cl)c(-c3ccc4nc(NC(=O)[C@@H]5C[C@@H]5F)sc4c3)c3cn[nH]c23)C1 [Example 88, (1-(5-chloro-6-fluoro-4-(2-((1S,2S)-2-fluorocyclopropane-1-carboxamido)benzo[d]thiazol-6-yl)-1H-indazol-7-yl)azetidin-3-yl)carbamic acid] | < 100 nM
CN(C(=O)O)C1CN(c2c(F)c(Cl)c(-c3ccc4nc(NC(=O)[C@@H]5C[C@@H]5F)sc4c3)c3cn[nH]c23)C1 [Example 89, (1-(5-chloro-6-fluoro-4-(2-((1S,2S)-2-fluorocyclopropane-1-carboxamido)benzo[d]thiazol-6-yl)-1H-indazol-7-yl)azetidin-3-yl)(methyl)carbamic acid] | < 100 nM
O=C(O)NCC1CN(c2c(F)c(Cl)c(-c3ccc4nc(NC(=O)[C@@H]5C[C@@H]5F)sc4c3)c3cn[nH]c23)C1 [Example 90, ((1-(5-chloro-6-fluoro-4-(2-((1S,2S)-2-fluorocyclopropane-1-carboxamido)benzo[d]thiazol-6-yl)-1H-indazol-7-yl)azetidin-3-yl)methyl)carbamic acid] | < 100 nM
NCC1CCN(c2c(F)c(Cl)c(-c3ccc4nc(NC(=O)[C@@H]5C[C@@H]5F)sc4c3)c3cn[nH]c23)C1 (stereo partly drawn) [Example 91, (1S,2S)-N-(6-(7-(3-(aminomethyl)pyrrolidin-1-yl)-5-chloro-6-fluoro-1H-indazol-4-yl)benzo[d]thiazol-2-yl)-2-fluorocyclopropanecarboxamide] | 101 to 500 nM
CNCCN(C)c1c(F)c(Cl)c(-c2ccc3nc(NC(=O)[C@@H]4C[C@@H]4F)sc3c2)c2cn[nH]c12 [Example 92, (1S,2S)-N-(6-(5-chloro-6-fluoro-7-(methyl(2-(methylamino)ethyl)amino)-1H-indazol-4-yl)benzo[d]thiazol-2-yl)-2-fluorocyclopropane-1-carboxamide] | < 100 nM
